In patent US20260070886A1, “QUINOLINE PIPERAZINE DERIVATIVES, PHARMACEUTICAL COMPOSITION AND USES THEREOF” (priority 2022, published 2026):

Tests used:
[1] = tested on: NCI-H-522; assay: CellTiter Glo assay, NCI-H-522; assay type: cell-based; conditions: Homo sapiens, NCI-H522; 72 hours, 10 point DRC, 100 μM top; read-out: Cytotoxicity IC50 NCI-H-522
Text: (§1) The following human derived non-small cell lung cancer cell lines were used to test the efficiency of the compounds to cause cell death and assess the anti-cancer properties of said compounds: 1. A549 cells: adenocarcinomic human alveolar basal epithelial cells; these cells are used as models for the study of lung cancer and the development of drug therapies against it • 2. NCI-H-460 cells are also human lung cancer cells, and • 3. NCI-H-522 cells are also human lung cancer cells.
(§2) Cells were cultured and maintained in F12K+10% FBS+1× anti-anti media and RPMI+10% FBS+1× anti-anti media. Cells were trypsinised and expanded to ensure that cells are not over-confluent and are in log growth phase. On day 0, 500 cells/well were seeded in 30 μl media using cell culture treated white flat bottom 384 well plate, centrifuged at 40×g for 10 seconds and incubated overnight in […], 5% CO2 incubator. On day 1, 4× concentration of compounds were prepared in complete media, 10 μl was added to cells, centrifuged at 40×g for 10 seconds and incubated 72 hours in 37° C., 5% CO2 incubator. Compounds tested: 100 μM top, 3 fold dilution and 10 point DRC in triplicate. Final DMSO concentration was maintained at 0.5% for all compound. No compound/DMSO was used as a control. On day 4 (72 hours post treatment) plates were brought to room temperature for 10 min 10 μl of CellTiter Glo reagent was added to each well and placed the plates on an orbital shaker for 10 minutes at room temperature. Luminescence signal was read on the Envision plate reader using the ultra-sensitive luminescence protocol. Data was plotted and analyzed using the below formula: DMSO control treated cells RLU considered as 100% cell viability.
(§3) Table 7 provides the IC50 values for cell toxicity of most efficient derivatives of Formula A.

[2] = tested on: NCI-H-522 cells; assay: Cell cytotoxicity assay, NCI-H-522 cells; assay type: cell-based; conditions: Homo sapiens, NCI-H522, 72 hours, percent cytotoxicity against DMSO control; for cytotoxicity at 1 µM: 1 μM compound, read-out: Cell toxicity NCI-H-522 cells 1 μM; for cytotoxicity at 10 µM: 10 μM compound, read-out: Cell toxicity NCI-H-522 cells 10 μM
Text: as §1
(§4) 500 cells/well/30 μL were seeded in a 384 well cell culture plate. Incubated over night at 37° C., 5% CO2 in cell culture incubator. 10 μL of 4× compound was added to the plates, and incubated for 72 hours at 37° C., 5% CO2 in cell culture incubator. Assay DMSO control were included for 0% cytotoxicity control. Assay was terminated by addition of 10 μL of the reagent CTG 2.0 detection reagent #G9242. Plates were incubated for 20 minute incubation at room temperature with shaking Plate were read in Envision. Ultrasensitive luminescence and data was analyzed and percent cytotoxicity of compounds was determined against DMSO control.
(§5) All the compounds, A1-A116, were tested for cell toxicity using said non-small cell lung cancer cell lines using the above described method.

[3] = tested on: Non-small cell lung cancer cell lines; assay: Cell toxicity assay, overall statement; assay type: cell-based; conditions: summary in words of Table 6
Text: as §1, §4, §5
These selected derivatives of Formula A were further tested to confirm their efficiency as anti-cancer compounds.

[4] = tested on: A549 cells; assay: Cell cytotoxicity assay, A549 cells; assay type: cell-based; conditions: Homo sapiens, 72 hours, percent cytotoxicity against DMSO control; for cytotoxicity at 1 µM: 1 μM compound, read-out: Cell toxicity A549 cells 1 μM; for cytotoxicity at 10 µM: 10 μM compound, read-out: Cell toxicity A549 cells 10 μM
Text: as §1, §4, §5

[5] = tested on: NCI-H-460; assay: CellTiter Glo assay, NCI-H-460; assay type: cell-based; conditions: Homo sapiens, NCI-H460; 72 hours, 10 point DRC, 100 μM top; read-out: Cytotoxicity IC50 NCI-H-460
Text: as §1, §2, §3

[6] = tested on: NCI-H-460 cells; assay: Cell cytotoxicity assay, NCI-H-460 cells; assay type: cell-based; conditions: Homo sapiens, NCI-H460, 72 hours, percent cytotoxicity against DMSO control; for cytotoxicity at 1 µM: 1 μM compound, read-out: Cell toxicity NCI-H-460 cells 1 μM; for cytotoxicity at 10 µM: 10 μM compound, read-out: Cell toxicity NCI-H-460 cells 10 μM
Text: as §1, §4, §5

[7] = tested on: A549; assay: CellTiter Glo assay, A549; assay type: cell-based; conditions: Homo sapiens, 72 hours, 10 point DRC, 100 μM top, read-out: Cytotoxicity IC50 A549
Text: as §1, §2, §3

[8] = tested on: Non-small cell lung cancer cell lines; assay: Cell Titer Glo assay, overall statement; assay type: cell-based, human; conditions: summary in words
Text: as §1, §2, §3

SMILES	IC50 [1]	cytotoxicity at 1 µM [2]	cytotoxicity at 10 µM [2]	activity against Non-small cell lung cancer (cell toxicity) [3]	cytotoxicity at 1 µM [4]	cytotoxicity at 10 µM [4]	IC50 [5]	cytotoxicity at 1 µM [6]	cytotoxicity at 10 µM [6]	IC50 [7]	efficiency in cell toxicity against Non-small cell lung cancer cell lines [8]
COc1cc(Nc2nc(N3CCN(c4ccnc5cc(Cl)ccc45)CC3)cc(C(F)(F)F)n2)cc(OC)c1 [Compound A1, 4-(4-(7-chloroquinolin-4-yl)piperazin-1-yl)-N-(3,5-dimethoxyphenyl)-6-(trifluoromethyl)pyrimidin-2-amine]	3.04 µM	21%	50%	active	42%	97%	2.41 µM	19%	82%	1.59 µM	best efficiency
COc1cncc(Nc2nc(N3CCN(c4ccnc5cc(Cl)ccc45)CC3)cc(C(F)(F)F)n2)c1 [Compound A7, 4-(4-(7-chloroquinolin-4-yl)piperazin-1-yl)-N-(5-methoxypyridin-3-yl)-6-(trifluoromethyl)pyrimidin-2-amine]	2.56 µM	18%	42%	active	53%	65%	3.42 µM	-1%	25%	4.19 µM	best efficiency
COc1cc(Nc2nc(C)cc(N3CCN(c4ccnc5ccccc45)CC3)n2)cc(OC)c1 [Compound A42, N-(3,5-dimethoxyphenyl)-4-methyl-6-(4-(quinolin-4-yl)piperazin-1-yl)pyrimidin-2-amine]	4.21 µM	20%	80%	active	68%	98%	2.35 µM	4%	67%	1.01 µM	best efficiency
COc1cc(Nc2nc(N3CCN(c4ccnc5ccccc45)CC3)cc(C(F)(F)F)n2)cc(OC)c1 [Compound A43, N-(3,5-dimethoxyphenyl)-4-(4-(quinolin-4-yl)piperazin-1-yl)-6-(trifluoromethyl)pyrimidin-2-amine]	1.23 µM	48%	73%	active	88%	99%	0.943 µM	8%	65%	0.665 µM	best efficiency
COc1cc(Nc2nc(N3CCN(c4ncnc5ccccc45)CC3)cc(C(F)(F)F)n2)cc(OC)c1 [Compound A47, N-(3,5-dimethoxyphenyl)-4-(4-(quinazolin-4-yl)piperazin-1-yl)-6-(trifluoromethyl)pyrimidin-2-amine]	–	45%	43%	active	38%	44%	–	4%	12%	–	–
COc1cc(Nc2nc(C)cc(N3CCN(c4ccnc5cc(F)ccc45)CC3)n2)cc(OC)c1 [Compound A48, N-(3,5-dimethoxyphenyl)-4-(4-(7-fluoroquinolin-4-yl)piperazin-1-yl)-6-methylpyrimidin-2-amine]	3.24 µM	16%	71%	active	57%	98%	1.84 µM	0%	66%	0.818 µM	best efficiency
COc1cc(Nc2nc(N3CCN(c4ccnc5cc(F)ccc45)CC3)cc(C(F)(F)F)n2)cc(OC)c1 [Compound A49, N-(3,5-dimethoxyphenyl)-4-(4-(7-fluoroquinolin-4-yl)piperazin-1-yl)-6-(trifluoromethyl)pyrimidin-2-amine]	1.84 µM	45%	77%	active	64%	99%	0.842 µM	3%	59%	0.576 µM	best efficiency
